PubChem BioAssay AID248 (DTP/NCI, 2004)
Inconclusive results and toxic doses are left out. No stated cut-off is given here; in the data, active means T/C of 150% or more; inactive means T/C below 125%.

Tested on: L1210 leukemia ip in BDF1 mice, survival T/C
Test: NCI In Vivo Anticancer Drug Screen. Data for tumor model L1210 Leukemia (intraperitoneal) in B6D2F1 (BDF1) mice
Settings: endpoint: mean survival time, higher = longer survival
In short: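 Tumor cells were implanted, animals were treated, and survival was followed. The result divides the treated measurement by the vehicle-control measurement.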

[1] = dose: 5.0 mg/kg/injection, schedule: Q01DX009 (ip), vehicle: saline
[2] = dose: 10.0 mg/kg/injection, schedule: Q01DX009 (ip), vehicle: saline

Measured: T/C

CCCCCCCCCCCCCCCCP(=O)(OCCOCCCCCC)OCCOCCCCCC
inactive: dose: 12.5 mg/kg/injection, schedule: Q01DX009 (ip), vehicle: acetone 93 % of control | dose: 12.5 mg/kg/injection, schedule: Q04DX003 (ip), vehicle: acetone 95 % of control | dose: 25.0 mg/kg/injection, schedule: Q01DX009 (ip), vehicle: acetone 100 % of control | dose: 25.0 mg/kg/injection, schedule: Q04DX003 (ip), vehicle: acetone 109 % of control | dose: 50.0 mg/kg/injection, schedule: Q01DX009 (ip), vehicle: acetone 93 % of control | dose: 50.0 mg/kg/injection, schedule: Q04DX003 (ip), vehicle: acetone 106 % of control

CC(=O)OCC1OC(n2cc(C)c(=O)[nH]c2=O)C(Nc2ccc([N+](=O)[O-])cc2[N+](=O)[O-])C(OC(C)=O)C1OC(C)=O (stereo not drawn)
inactive: dose: 50.0 mg/kg/injection, schedule: Q01DX001 (ip), vehicle: carboxymethylcellulose (CMC) 97 % of control | dose: 100.0 mg/kg/injection, schedule: Q01DX001 (ip), vehicle: carboxymethylcellulose (CMC) 94 % of control | dose: 200.0 mg/kg/injection, schedule: Q01DX001 (ip), vehicle: carboxymethylcellulose (CMC) 94 % of control | dose: 400.0 mg/kg/injection, schedule: Q01DX001 (ip), vehicle: carboxymethylcellulose (CMC) 89 % of control

Sc1c(Cl)c(Cl)c(Cl)c(Cl)c1Cl
inactive: dose: 100.0 mg/kg/injection, schedule: Q01DX001 (ip), vehicle: Klucel (hydroxypropylcellulose) (HPC) 106 % of control | dose: 100.0 mg/kg/injection, schedule: Q01DX009 (ip), vehicle: Klucel (hydroxypropylcellulose) (HPC) 93 % of control | dose: 200.0 mg/kg/injection, schedule: Q01DX001 (ip), vehicle: Klucel (hydroxypropylcellulose) (HPC) 106 % of control | dose: 200.0 mg/kg/injection, schedule: Q01DX009 (ip), vehicle: Klucel (hydroxypropylcellulose) (HPC) 100 % of control | dose: 400.0 mg/kg/injection, schedule: Q01DX001 (ip), vehicle: Klucel (hydroxypropylcellulose) (HPC) 104 % of control | dose: 400.0 mg/kg/injection, schedule: Q01DX009 (ip), vehicle: Klucel (hydroxypropylcellulose) (HPC) 93 % of control

Cc1ccc(C)c(CNC(=O)C2CCCCC2C(=O)O)c1 (stereo not drawn)
inactive: dose: 100.0 mg/kg/injection, schedule: Q01DX009 (ip), vehicle: saline with Tween-80 101 % of control | dose: 200.0 mg/kg/injection, schedule: Q01DX009 (ip), vehicle: saline with Tween-80 112 % of control | dose: 400.0 mg/kg/injection, schedule: Q01DX009 (ip), vehicle: saline with Tween-80 109 % of control

NC(N)=N/N=C(\c1ccccc1)C(O)c1ccccc1 (stereo not drawn)
inactive: dose: 15.0 mg/kg/injection, schedule: Q01DX Z (ip), vehicle: carboxymethylcellulose (CMC) 106 % of control | dose: 30.0 mg/kg/injection, schedule: Q01DX Z (ip), vehicle: carboxymethylcellulose (CMC) 101 % of control | dose: 60.0 mg/kg/injection, schedule: Q01DX Z (ip), vehicle: carboxymethylcellulose (CMC) 102 % of control | dose: 60.0 mg/kg/injection, schedule: Q01DX Z (oral), vehicle: carboxymethylcellulose (CMC) 96 % of control | dose: 120.0 mg/kg/injection, schedule: Q01DX Z (ip), vehicle: carboxymethylcellulose (CMC) 98 % of control | dose: 120.0 mg/kg/injection, schedule: Q01DX Z (oral), vehicle: carboxymethylcellulose (CMC) 90 % of control | dose: 240.0 mg/kg/injection, schedule: Q01DX Z (oral), vehicle: carboxymethylcellulose (CMC) 90 % of control | dose: 480.0 mg/kg/injection, schedule: Q01DX Z (oral), vehicle: carboxymethylcellulose (CMC) 93 % of control

O=C(Sc1ccc2ccccc2c1CN1CCCCC1)c1ccc([N+](=O)[O-])cc1
inactive: dose: 200.0 mg/kg/injection, schedule: Q01DX Z (ip), vehicle: methylcellulose (MC) 96 % of control | dose: 225.0 mg/kg/injection, schedule: Q01DX Z (ip), vehicle: methylcellulose (MC) 94 % of control | dose: 450.0 mg/kg/injection, schedule: Q01DX Z (ip), vehicle: methylcellulose (MC) 89 % of control | dose: 675.0 mg/kg/injection, schedule: Q01DX Z (ip), vehicle: methylcellulose (MC) 96 % of control

CSC(c1ccc(Oc2ccccc2)cc1)=[N+]1CCCCC1
inactive: dose: 9.38 mg/kg/injection, schedule: Q01DX001 (ip), vehicle: steriod suspending solution 105 % of control | dose: 18.75 mg/kg/injection, schedule: Q01DX001 (ip), vehicle: steriod suspending solution 103 % of control | dose: 37.5 mg/kg/injection, schedule: Q01DX001 (ip), vehicle: steriod suspending solution 105 % of control

O=[N+]([O-])c1cc2cc(Br)ccc2o1
inactive: dose: 12.5 mg/kg/injection, schedule: Q04DX002 (ip), vehicle: Klucel (hydroxypropylcellulose) (HPC) 102 % of control | dose: 25.0 mg/kg/injection, schedule: Q04DX002 (ip), vehicle: Klucel (hydroxypropylcellulose) (HPC) 106 % of control | dose: 50.0 mg/kg/injection, schedule: Q04DX002 (ip), vehicle: Klucel (hydroxypropylcellulose) (HPC) 97 % of control

CN(C)CCCNc1c2ccccc2nc2cccc([N+](=O)[O-])c12
inactive: dose: 0.2 mg/kg/injection, schedule: Q04DX003 (ip), vehicle: saline 100 % of control | dose: 0.3 mg/kg/injection, schedule: Q04DX003 (ip), vehicle: saline 94 % of control | dose: 0.5 mg/kg/injection, schedule: Q04DX003 (ip), vehicle: saline 108 % of control

N/C(=N/N=C/c1ccccn1)N[N+](=O)[O-]
inactive: dose: 12.5 mg/kg/injection, schedule: Q01DX009 (ip), vehicle: saline with Tween-80 105 % of control | dose: 12.5 mg/kg/injection, schedule: Q04DX003 (ip), vehicle: saline with Tween-80 119 % of control | dose: 25.0 mg/kg/injection, schedule: Q01DX009 (ip), vehicle: saline with Tween-80 101 % of control | dose: 25.0 mg/kg/injection, schedule: Q04DX003 (ip), vehicle: saline with Tween-80 105 % of control | dose: 50.0 mg/kg/injection, schedule: Q04DX003 (ip), vehicle: saline with Tween-80 114 % of control

C[N+](C)(C)CC1CCCC1C[N+](C)(C)C (stereo not drawn)
inactive: dose: 50.0 mg/kg/injection, schedule: Q04DX003 (ip), vehicle: saline 110 % of control | dose: 100.0 mg/kg/injection, schedule: Q04DX003 (ip), vehicle: saline 96 % of control | dose: 200.0 mg/kg/injection, schedule: Q04DX003 (ip), vehicle: saline 102 % of control | dose: 400.0 mg/kg/injection, schedule: Q04DX003 (ip), vehicle: saline 90 % of control

CCOc1ccc([N+](=O)[O-])cc1CN(CC)CC
inactive: [1] 97 % of control | dose: 9.5 mg/kg/injection, schedule: Q01DX001 (ip), vehicle: saline 109 % of control | [2] 95 % of control | dose: 10.0 mg/kg/injection, schedule: Q04DX003 (ip), vehicle: saline 97 % of control | dose: 19.0 mg/kg/injection, schedule: Q01DX001 (ip), vehicle: saline 106 % of control | dose: 20.0 mg/kg/injection, schedule: Q01DX009 (ip), vehicle: saline 89 % of control | dose: 20.0 mg/kg/injection, schedule: Q04DX003 (ip), vehicle: saline 102 % of control | dose: 38.0 mg/kg/injection, schedule: Q01DX001 (ip), vehicle: saline 98 % of control

NC(=O)C(NC(=O)c1ccc([N+](=O)[O-])cc1)Sc1ccccc1 (stereo not drawn)
inactive: dose: 100.0 mg/kg/injection, schedule: Q04DX002 (ip), vehicle: Klucel (hydroxypropylcellulose) (HPC) 109 % of control | dose: 200.0 mg/kg/injection, schedule: Q04DX002 (ip), vehicle: Klucel (hydroxypropylcellulose) (HPC) 106 % of control | dose: 400.0 mg/kg/injection, schedule: Q04DX002 (ip), vehicle: Klucel (hydroxypropylcellulose) (HPC) 101 % of control

FC(F)(F)S.[Hg]
inactive: [1] 86 % of control | [2] 93 % of control

CC1(C)CC(=O)CC(C)(CN)C1 (stereo not drawn)
inactive: dose: 100.0 mg/kg/injection, schedule: Q04DX003 (ip), vehicle: Klucel (hydroxypropylcellulose) (HPC) 100 % of control | dose: 200.0 mg/kg/injection, schedule: Q04DX003 (ip), vehicle: Klucel (hydroxypropylcellulose) (HPC) 104 % of control | dose: 400.0 mg/kg/injection, schedule: Q04DX003 (ip), vehicle: Klucel (hydroxypropylcellulose) (HPC) 100 % of control

Cc1cc(Cl)nc2ccc3ccccc3c12
inactive: dose: 100.0 mg/kg/injection, schedule: Q01DX001 (ip), vehicle: saline 96 % of control | dose: 200.0 mg/kg/injection, schedule: Q01DX001 (ip), vehicle: saline 93 % of control | dose: 400.0 mg/kg/injection, schedule: Q01DX001 (ip), vehicle: saline 89 % of control
